Columns and labels:
Mus musculus [1] = assay: Antitumor activity was evaluated against L1210 leukemia, injected intraperitoneally at a dose 155 umol/kg; infinity-50-100%survivals; type: functional, organism-based
Mus musculus [2] = assay: Antitumor activity was evaluated against L1210 leukemia, injected intraperitoneally at a dose 195 umol/kg; infinity-50-100%survivals; type: functional, organism-based
Mus musculus [3] = assay: Antitumor activity was evaluated against L1210 leukemia, injected intraperitoneally at a dose 80 umol/kg; infinity-50-100%survivals; type: functional, organism-based
Mus musculus [4] = assay: Antitumor activity was evaluated against L1210 leukemia, injected intravenously at a dose 155 umol/kg; infinity-50-100%survivals; type: functional, organism-based
Mus musculus [5] = assay: Antitumor activity was evaluated against L1210 leukemia, injected intravenously at a dose 195 umol/kg; infinity-50-100%survivals; type: functional, organism-based
Mus musculus [6] = assay: Antitumor activity was evaluated against L1210 leukemia, injected intravenously at a dose 115 umol/kg; infinity-50-100%survivals; type: functional, organism-based
Mus musculus [7] = assay: Antitumor activity was evaluated against L1210 leukemia, injected intraperitoneally at a dose 115 umol/kg; infinity-50-100%survivals; type: functional, organism-based
Mus musculus [8] = assay: Antitumor activity was evaluated against L1210 leukemia, injected intraperitoneally at a dose 165 umol/kg; infinity-50-100%survivals; type: functional, organism-based
Mus musculus [9] = assay: Antitumor activity was evaluated against L1210 leukemia, injected intravenously at a dose 165 umol/kg; infinity-50-100%survivals; type: functional, organism-based
Mus musculus [10] = assay: Antitumor activity was evaluated against L1210 leukemia, injected intraperitoneally at a dose 125 umol/kg; infinity-50-100%survivals; type: functional, organism-based
Mus musculus [11] = assay: Antitumor activity was evaluated against L1210 leukemia, injected intravenously at a dose 210 umol/kg; infinity-50-100%survivals; type: functional, organism-based
Mus musculus [12] = assay: Antitumor activity was evaluated against L1210 leukemia, injected intravenously at a dose 125 umol/kg; infinity-50-100%survivals; type: functional, organism-based
Mus musculus [13] = assay: Number of survivors/ number of animals tested at the dose of 125 mg/Kg; 6/6; type: functional
Mus musculus [14] = assay: Number of survivors/ number of animals tested at the dose of 40 mg/Kg, iv; 0/6; type: functional
Mus musculus [15] = assay: Number of survivors/ number of animals tested at the dose of 210 mg/Kg; 0/6; type: functional
Mus musculus [16] = assay: Antitumor activity was evaluated against L1210 leukemia, injected intraperitoneally at a dose 210 umol/kg; type: functional
Mus musculus [17] = assay: Number of survivors/ number of animals tested at the dose of 80 mg/Kg; 6/6; type: functional
Mus musculus [18] = assay: Number of survivors/ number of animals tested at the dose of 80 mg/Kg, iv; 0/6; type: functional
Mus musculus [19] = assay: Number of survivors/ number of animals tested at the dose of 40 mg/Kg; 2/6; type: functional
Mus musculus [20] = assay: Antitumor activity was evaluated against L1210 leukemia, injected intravenously at a dose 40 umol/kg; type: functional
L1210 = assay: Antitumor activity was evaluated against L1210 leukemia, injected intraperitoneally at a dose 40 umol/kg; type: functional, Mus musculus
Mus musculus [21] = assay: Number of survivors/ number of animals tested at the dose of 165 mg/Kg; 6/6; type: functional
Mus musculus [22] = assay: Number of survivors/ number of animals tested at the dose of 125 mg/Kg, iv; 6/6; type: functional
Mus musculus [23] = assay: Number of survivors/ number of animals tested at the dose of 210 mg/Kg; 3/6; type: functional
Mus musculus [24] = assay: Number of survivors/ number of animals tested at the dose of 165 mg/Kg; 5/6; type: functional
Mus musculus [25] = assay: Antitumor activity was evaluated against L1210 leukemia, injected intravenously at a dose 80 umol/kg; type: functional
Mus musculus [26] = assay: Antitumor activity was evaluated against L1210 leukemia, injected intravenously at a dose 40-250 umol/kg; type: functional

With `CS(=O)(=O)CCN(N=O)C(=O)NCCCl.CS(=O)(=O)CCNC(=O)N(CCCl)N=O` the “T/C x100” value (Mus musculus [1]) was “infinity-50-100%survivals”, the “T/C x100” value (Mus musculus [2]) was “infinity-50-100%survivals” and the “T/C x100” value (Mus musculus [3]) was “infinity-50-100%survivals”. For the same compound, the “T/C x100” value (Mus musculus [4]) was “infinity-50-100%survivals”, the “T/C x100” value (Mus musculus [5]) was “infinity-50-100%survivals” and the “T/C x100” value (Mus musculus [6]) was “infinity-50-100%survivals”. The “T/C x100” value (Mus musculus [7]) was “infinity-50-100%survivals”.
In the case of `C[S+]([O-])CCN(N=O)C(=O)NCCCl.C[S+]([O-])CCNC(=O)N(CCCl)N=O` (centres undefined) [listing 1 of 2 here], the “T/C x100” value (Mus musculus [8]) is reported as “infinity-50-100%survivals”, the “T/C x100” value (Mus musculus [9]) is reported as “infinity-50-100%survivals” and the “T/C x100” value (Mus musculus [10]) is reported as “infinity-50-100%survivals”. The “T/C x100” value (Mus musculus [11]) was “infinity-50-100%survivals”, the “T/C x100” value (Mus musculus [3]) was “infinity-50-100%survivals” and the “T/C x100” value (Mus musculus [12]) was “infinity-50-100%survivals”.
Compound `C[S+]([O-])CCN(N=O)C(=O)NCCCl.C[S+]([O-])CCNC(=O)N(CCCl)N=O` (centres undefined) [listing 2 of 2 here] has a Survivors (Mus musculus [13]) of 6, a Survivors (Mus musculus [14]) of 0 and a Survivors (Mus musculus [15]) of 0. For the same compound, the “T/C x100” value (Mus musculus [16]) was 295, the Survivors (Mus musculus [17]) was 6 and the Survivors (Mus musculus [18]) was 0. For the same compound, the Survivors (Mus musculus [19]) was 2, the “T/C x100” value (Mus musculus [20]) was 170 and the “T/C x100” value (L1210) was 300. It also gave a Survivors (Mus musculus [21]) of 6, a Survivors (Mus musculus [22]) of 6 and a Survivors (Mus musculus [23]) of 3. For the same compound, the Survivors (Mus musculus [24]) was 5 and the “T/C x100” value (Mus musculus [25]) was 270.
`CS(=O)(=O)CCN(N=O)C(=O)NCCCl` was tested, and the “T/C x100” value (Mus musculus [26]) was under 125.
`C[S+]([O-])CCN(N=O)C(=O)NCCCl` (centres undefined) was tested, and the “T/C x100” value (Mus musculus [26]) was under 125.

— ChEMBL document CHEMBL1123050, “New cysteamine (2-chloroethyl)nitrosoureas. Synthesis and preliminary antitumor results” (1985)
